Experiments:
[1] = biological target: Muscarinic acetylcholine receptor; assay: The binding affinity was measured as inhibition of binding of [3H]- oxotremorine-M to muscarinic acetylcholine receptor in rat cerebral cortical membranes.; assay type: cell membranes, Membrane
[2] = Ratio of affinity versus antagonist [3H]-QNB divided by affinity versus agonist [3H]OXO-M; assay type: functional
[3] = biological target: Muscarinic acetylcholine receptor; assay type: cell membranes, Rattus norvegicus, Membrane
[4] = biological target: T1, Muscarinic acetylcholine receptor M1 (Homo sapiens, UniProt P11229); assay: Inhibition of [3H]- oxotremorine-M binding to human Muscarinic acetylcholine receptor M1 expressed in CHO cell membranes; assay type: cell-based
T1 sequence (P11229 whole entry): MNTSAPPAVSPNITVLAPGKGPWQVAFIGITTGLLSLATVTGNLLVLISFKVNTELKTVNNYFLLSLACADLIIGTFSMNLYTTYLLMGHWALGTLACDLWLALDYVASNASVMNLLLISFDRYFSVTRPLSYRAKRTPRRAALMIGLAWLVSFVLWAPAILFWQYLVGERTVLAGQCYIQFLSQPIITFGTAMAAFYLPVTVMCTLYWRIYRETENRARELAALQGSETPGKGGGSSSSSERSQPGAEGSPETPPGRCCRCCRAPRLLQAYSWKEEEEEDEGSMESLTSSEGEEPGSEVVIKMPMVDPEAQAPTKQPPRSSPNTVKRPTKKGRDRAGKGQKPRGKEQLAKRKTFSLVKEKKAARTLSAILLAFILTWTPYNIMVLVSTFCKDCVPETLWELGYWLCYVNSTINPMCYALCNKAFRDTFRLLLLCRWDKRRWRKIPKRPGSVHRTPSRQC

[5] = biological target: T1, Muscarinic acetylcholine receptor M1; assay: The binding affinity was measured as inhibition of binding of [3H]- quinuclidinyl benzilate to Muscarinic acetylcholine receptor M1 in membranes of CHO cells; assay type: cell membranes
[6] = biological target: T2, Muscarinic acetylcholine receptor M2 (Homo sapiens, UniProt P08172); assay: Inhibition of [3H]- oxotremorine-M binding to human Muscarinic acetylcholine receptor M2 expressed in CHO cell membranes
T2 sequence (P08172 whole entry): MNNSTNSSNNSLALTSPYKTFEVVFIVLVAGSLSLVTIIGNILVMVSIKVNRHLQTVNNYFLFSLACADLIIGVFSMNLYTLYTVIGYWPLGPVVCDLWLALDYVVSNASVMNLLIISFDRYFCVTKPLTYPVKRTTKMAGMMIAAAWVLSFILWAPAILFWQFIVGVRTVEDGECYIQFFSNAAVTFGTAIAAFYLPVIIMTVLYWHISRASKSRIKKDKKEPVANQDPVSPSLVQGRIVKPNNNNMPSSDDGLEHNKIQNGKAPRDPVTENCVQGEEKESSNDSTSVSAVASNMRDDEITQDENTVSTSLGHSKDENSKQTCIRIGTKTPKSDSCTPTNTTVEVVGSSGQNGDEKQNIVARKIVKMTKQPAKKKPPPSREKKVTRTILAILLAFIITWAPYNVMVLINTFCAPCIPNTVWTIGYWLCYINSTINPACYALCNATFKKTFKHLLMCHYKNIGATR

[7] = biological target: T2, Muscarinic acetylcholine receptor M2; assay type: cell membranes, CHO
[8] = biological target: Muscarinic acetylcholine receptor
[9] = biological target: T3, Muscarinic acetylcholine receptor M3 (Homo sapiens, UniProt P20309); assay type: cell membranes, CHO
Target sequence in this assay (P20309 whole entry): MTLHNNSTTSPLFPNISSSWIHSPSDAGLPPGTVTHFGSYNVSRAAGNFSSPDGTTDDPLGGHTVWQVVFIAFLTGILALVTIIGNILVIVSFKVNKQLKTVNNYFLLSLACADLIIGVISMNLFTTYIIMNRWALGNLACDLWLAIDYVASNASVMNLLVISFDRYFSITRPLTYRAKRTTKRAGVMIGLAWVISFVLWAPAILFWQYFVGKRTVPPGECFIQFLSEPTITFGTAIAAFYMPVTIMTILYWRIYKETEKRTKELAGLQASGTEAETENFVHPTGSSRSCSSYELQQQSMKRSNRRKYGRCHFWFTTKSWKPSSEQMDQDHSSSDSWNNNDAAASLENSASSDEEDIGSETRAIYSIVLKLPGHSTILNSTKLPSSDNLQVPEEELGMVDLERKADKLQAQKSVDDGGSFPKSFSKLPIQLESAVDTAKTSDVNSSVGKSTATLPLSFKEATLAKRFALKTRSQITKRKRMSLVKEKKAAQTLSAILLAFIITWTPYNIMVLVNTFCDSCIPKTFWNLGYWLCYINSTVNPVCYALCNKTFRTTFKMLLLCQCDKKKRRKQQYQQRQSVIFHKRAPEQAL

[10] = biological target: T4, Muscarinic acetylcholine receptor M4 (Homo sapiens, UniProt P08173); assay: Inhibition of [3H]- oxotremorine-M binding to human Muscarinic acetylcholine receptor M4 in CHO cell membranes
T4 sequence (P08173 whole entry): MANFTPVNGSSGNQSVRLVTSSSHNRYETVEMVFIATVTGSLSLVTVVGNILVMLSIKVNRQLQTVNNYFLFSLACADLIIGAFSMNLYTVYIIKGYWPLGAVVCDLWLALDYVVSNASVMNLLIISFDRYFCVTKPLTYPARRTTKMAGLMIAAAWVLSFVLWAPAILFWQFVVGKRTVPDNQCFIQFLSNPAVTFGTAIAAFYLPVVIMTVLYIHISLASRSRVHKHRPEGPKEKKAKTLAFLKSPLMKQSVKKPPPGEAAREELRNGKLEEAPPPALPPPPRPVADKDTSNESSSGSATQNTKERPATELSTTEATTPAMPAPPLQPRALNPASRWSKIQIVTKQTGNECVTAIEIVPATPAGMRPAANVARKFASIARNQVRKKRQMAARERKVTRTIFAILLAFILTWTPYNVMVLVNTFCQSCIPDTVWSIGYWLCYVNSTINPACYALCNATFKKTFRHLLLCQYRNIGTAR

[11] = biological target: T4, Muscarinic acetylcholine receptor M4; assay type: cell membranes, CHO
[12] = biological target: Muscarinic acetylcholine receptor; remark: listed apart in the source
Description: Inhibition of [3H]- quinuclidinyl benzilate binding to Muscarinic acetylcholine receptor of rat heart membranes.

[13] = biological target: T5, Muscarinic acetylcholine receptor M1 (Homo sapiens) (UniProt P11229); details: CHO; at 100 µM
T5 sequence (whole entry): T1 sequence (P11229 whole entry)
Description: Inhibition of binding of [3H]- quinuclidinyl benzilate to Muscarinic acetylcholine receptor M1 in membranes of CHO cells at 100 uM compound concentration

[14] = biological target: T3, Muscarinic acetylcholine receptor M3; details: CHO; at 100 µM
Target sequence in this assay (P20309 whole entry, looked up): as the sequence (P20309 whole entry) above
Description: Inhibition of binding of [3H]- quinuclidinyl benzilate to Muscarinic acetylcholine receptor M3 in membranes of CHO cells at 100 uM compound concentration

[15] = biological target: T3, Muscarinic acetylcholine receptor M3; assay: The binding affinity was measured as inhibition of binding of [3H]- quinuclidinyl benzilate to m3 Muscarinic acetylcholine receptor M3 in membranes of CHO cells; assay type: cell membranes
Target sequence in this assay (P20309 whole entry): as the sequence (P20309 whole entry) above

[16] = biological target: Muscarinic acetylcholine receptor; assay: The binding affinity was measured as inhibition of binding of [3H]- quinuclidinyl benzilate to Muscarinic acetylcholine receptor; assay type: protein assay
[17] = biological target: T5, Muscarinic acetylcholine receptor M1 (Homo sapiens); details: CHO
[18] = biological target: T5, Muscarinic acetylcholine receptor M1 (Homo sapiens); assay: Inhibition of binding of [3H]- quinuclidinyl benzilate to Muscarinic acetylcholine receptor M1 in membranes of CHO cells at 100 uM; assay type: cell membranes

Row | SMILES | Ki [1] [nM] | Ratio [2] | Ki [3] [nM] | Ki [4] [nM] | Ki [6] [nM] | Ki [7] [nM] | Ki [10] [nM] | Ki [11] [nM] | further results
1 | CN1C2CCCC1C(OC(=O)c1ccc([N+](=O)[O-])cc1)C2 (stereo not given) | 14000 | > 10 | – | – | – | – | – | – | –
2 | O=C(OC1CC2CCCC1N2)c1ccccc1 (stereo not given) | 650 | 1.2 | 800 | 120 | 1700 | 300 | 500 | 190 | Ki [5]: 2800 nM; Ki [8]: 440 nM; Ki [9]: 1300 nM; Ki [12]: 1400 nM
3 | CN1C2CCCC1C(OS(C)(=O)=O)C2 (stereo not given) | 2200 | > 100 | – | – | – | – | – | – | –
4 | CN1C2CCCC1C(OC(=O)Nc1ccccc1)C2 (stereo not given) | 5100 | > 20 | – | – | – | – | – | – | –
5 | COc1ccccc1C(=O)OC1CC2CCCC1N2C (stereo not given) | 1400 | 22 | 31000 | – | – | – | – | – | –
6 | CN(C)C(=O)OC1CC2CCCC1N2C (stereo not given) | – | > 60 | – | – | – | – | – | – | –
7 | C[C@@H]1O[C@H](C[N+](C)(C)C)C[C@H]1O [MUSCARINE] | – | – | – | – | – | – | 23 | 1400 | inhibition [13]: 2%; inhibition [14]: 28%
8 | O=C(OC1CC2CCCC1N2)C1CCCCC1 (stereo not given) | 1900 | 13 | 25000 | 970 | 9000 | 3600 | 2200 | 840 | Ki [5]: 20000 nM; Ki [9]: 7500 nM
9 | COc1ccc(C(=O)OC2CC3CCCC2N3)cc1 (stereo not given) | 1700 | > 60 | – | – | – | – | – | – | –
10 | O=C(OC1CC2CCCC1N2)c1ccc([N+](=O)[O-])cc1 (stereo not given) | 430 | 5.1 | 2200 | 29 | 310 | 360 | 450 | 48 | Ki [5]: 780 nM; Ki [15]: 450 nM
11 | O=C(Nc1ccccc1)OC1CC2CCCC1N2 (stereo not given) | 4300 | > 25 | – | – | – | – | – | – | –
12 | CN1C2CCCC1C(OC(=O)c1ccccc1)C2 (stereo not given) | 860 | 2.1 | 1800 | 270 | 1300 | 260 | 910 | 410 | Ki [5]: 7700 nM; Ki [8]: 790 nM; Ki [9]: 3200 nM; Ki [12]: 1400 nM
13 | O=C1CCCN1CC#CCN1CCCC1 [OXOTREMORINE] | 13 | 4500 | 58000 | 17 | 38 | 660 | 1.5 | 160 | Ki [8]: 6 nM; inhibition [13]: 9%; inhibition [14]: 28%; Ki [12]: 330 nM
14 | CCC(=O)OC1CC2CCCC1N2C (stereo not given) | 1500 | > 70 | – | 230 | 1200 | 2400 | 1400 | 960 | Ki [9]: 7400 nM; inhibition [13]: 46%
15 | CC(=O)OC1CC2CCCC1N2 (stereo not given) | 2 | 11000 | – | 4.6 | 7 | – | 4 | – | Ki [16]: 22000 nM; Ki [8]: 0.95 nM; Ki [12]: 400 nM
16 | CN(C)C(=O)OC1CC2CCCC1N2 (stereo not given) | 1700 | > 60 | – | – | – | – | – | – | –
17 | CC(=O)OC1CC2CCCC1N2C (stereo not given) | 860 | 330 | 280000 | 2300 | 4400 | – | 900 | – | Ki [8]: 92 nM; inhibition (at 100uM) [17]: 11%; Ki [12]: 17000 nM
18 | CCCC(=O)OC1CC2CCCC1N2C (stereo not given) | 1200 | 28 | 34000 | – | – | – | – | – | –
19 | CCC(=O)OC1CC2CCCC1N2 (stereo not given) | 30 | 1100 | 32000 | 190 | 190 | 3100 | 85 | 660 | inhibition [18]: 36%; Ki [9]: 11400 nM
20 | CN1C2CCCC1C(OC(=O)OCC(Cl)(Cl)Cl)C2 (stereo not given) | 720 | 31 | 23000 | 1000 | 920 | 820 | 2300 | 42 | Ki [5]: 27000 nM; Ki [9]: 6700 nM
21 | COc1ccc(C(=O)OC2CC3CCCC2N3C)cc1 (stereo not given) | 7300 | > 15 | – | – | – | – | – | – | –
22 | COc1ccccc1C(=O)OC1CC2CCCC1N2 (stereo not given) | 2800 | 19 | 53000 | – | – | – | – | – | –
23 | CN1C2CCCC1C(OC(=O)C1CCCCC1)C2 (stereo not given) | 860 | 13 | 8500 | 450 | 1600 | 730 | 700 | 300 | Ki [5]: 7000 nM; Ki [9]: 3000 nM
24 | CCCC(=O)OC1CC2CCCC1N2 (stereo not given) | 160 | 190 | 30000 | – | – | – | – | – | –
25 | CS(=O)(=O)OC1CC2CCCC1N2 (stereo not given) | 2700 | > 100 | – | – | – | – | – | – | –

Reference: ChEMBL document CHEMBL1133759, “6beta-Acyloxy(nor)tropanes: affinities for antagonist/agonist binding sites on transfected and native muscarinic receptors” (J Med Chem, 2000)
